Results reported in PubChem BioAssay AID1963871 (Molecular Pharmacology Branch, DTP, NCI, 2024).

System: KRAS-mutant PDC multicell tumor spheroid viability
Assay: Anticancer human tumor 521955-158-R2-J5-PDC patient-derived pancreatic carcinoma cell line growth inhibition [KRAS2]
Details: for viability, T/C: stronger effect = lower value
How it was run: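 KRAS-mutant tumor cells were grown as spheroids with HUVEC endothelial cells and human MSCs as stroma. Targeted agents were tested alone and with KRAS pathway inhibitors. Doses started at or near clinical Cmax, or 10 microM, descending half-log.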

[1] = curve of first compound, second compound 0.1 µM
[2] = curve of first compound, second compound 0.316 µM
[3] = curve of first compound, second compound 1 µM
[4] = curve of first compound, second compound 3.16 µM
[5] = curve of first compound, second compound 10 µM
[6] = second compound 0.1 µM, first compound 0.0316 µM
[7] = second compound 0.1 µM, first compound 0.1 µM
[8] = second compound 0.1 µM, first compound 0.316 µM
[9] = second compound 0.1 µM, first compound 1 µM
[10] = second compound 0.1 µM, first compound 3.16 µM
[11] = second compound 0.1 µM, first compound 10 µM
[12] = second compound 0.316 µM, first compound 0.0316 µM
[13] = second compound 0.316 µM, first compound 0.1 µM
[14] = second compound 0.316 µM, first compound 0.316 µM
[15] = second compound 0.316 µM, first compound 1 µM
[16] = second compound 0.316 µM, first compound 3.16 µM
[17] = second compound 0.316 µM, first compound 10 µM
[18] = second compound 1 µM, first compound 0.0316 µM
[19] = second compound 1 µM, first compound 0.1 µM
[20] = second compound 1 µM, first compound 0.316 µM
[21] = second compound 1 µM, first compound 1 µM
[22] = second compound 1 µM, first compound 3.16 µM
[23] = second compound 1 µM, first compound 10 µM
[24] = second compound 3.16 µM, first compound 0.0316 µM
[25] = second compound 3.16 µM, first compound 0.1 µM
[26] = second compound 3.16 µM, first compound 0.316 µM
[27] = second compound 3.16 µM, first compound 1 µM
[28] = second compound 3.16 µM, first compound 3.16 µM
[29] = second compound 3.16 µM, first compound 10 µM
[30] = second compound 10 µM, first compound 0.0316 µM
[31] = second compound 10 µM, first compound 0.1 µM
[32] = second compound 10 µM, first compound 0.316 µM
[33] = second compound 10 µM, first compound 1 µM
[34] = second compound 10 µM, first compound 3.16 µM
[35] = second compound 10 µM, first compound 10 µM
[36] = second compound 0.1 µM, first compound 0.00316 µM
[37] = second compound 0.1 µM, first compound 0.01 µM
[38] = second compound 0.316 µM, first compound 0.00316 µM
[39] = second compound 0.316 µM, first compound 0.01 µM
[40] = second compound 1 µM, first compound 0.00316 µM
[41] = second compound 1 µM, first compound 0.01 µM
[42] = second compound 3.16 µM, first compound 0.00316 µM
[43] = second compound 3.16 µM, first compound 0.01 µM
[44] = second compound 10 µM, first compound 0.00316 µM
[45] = second compound 10 µM, first compound 0.01 µM
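Further: viability read after seven days of drug exposure.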

CC1(C)CCC(CN2CCN(c3ccc(C(=O)NS(=O)(=O)c4ccc(NCC5CCOCC5)c([N+](=O)[O-])c4)c(Oc4cnc5[nH]ccc5c4)c3)CC2)=C(c2ccc(Cl)cc2)C1 + CC1OCC2(CCN(c3cnc(Sc4ccnc(N)c4Cl)c(N)n3)CC2)C1N
IC50 [1]: 5300 nM
IC50 [2]: 4270 nM
IC50 [3]: 1370 nM
IC50 [4]: < 31.6 nM
IC50 [5]: < 31.6 nM
viability, T/C [6]: 70.5%
viability, T/C [7]: 75.5%
viability, T/C [8]: 74%
viability, T/C [9]: 81.3%
viability, T/C [10]: 89.9%
viability, T/C [11]: 15.3%
viability, T/C [12]: 62.2%
viability, T/C [13]: 71.7%
viability, T/C [14]: 51.1%
viability, T/C [15]: 63.5%
viability, T/C [16]: 69.2%
viability, T/C [17]: 11.9%
viability, T/C [18]: 53.5%
viability, T/C [19]: 51.5%
viability, T/C [20]: 54.1%
viability, T/C [21]: 50.3%
viability, T/C [22]: 45.7%
viability, T/C [23]: 8.54%
viability, T/C [24]: 48.1%
viability, T/C [25]: 41.3%
viability, T/C [26]: 35.1%
viability, T/C [27]: 41.4%
viability, T/C [28]: 46.7%
viability, T/C [29]: 8.81%
viability, T/C [30]: 40.3%
viability, T/C [31]: 47.5%
viability, T/C [32]: 37.2%
viability, T/C [33]: 40.5%
viability, T/C [34]: 17.1%
viability, T/C [35]: 1.93%

CC1(C)CCC(CN2CCN(c3ccc(C(=O)NS(=O)(=O)c4ccc(NCC5CCOCC5)c([N+](=O)[O-])c4)c(Oc4cnc5[nH]ccc5c4)c3)CC2)=C(c2ccc(Cl)cc2)C1 + C=CC(=O)N1CCN(c2nc(OCC3CCCN3C)nc3c2CCN(c2cccc4cccc(C)c24)C3)CC1CC#N
IC50 (curve of first compound, second compound 0.0316 µM): 4890 nM
IC50 [1]: 4630 nM
IC50 [2]: 2010 nM
IC50 [3]: 1680 nM
IC50 [4]: < 31.6 nM
viability, T/C (second compound 0.0316 µM, first compound 0.0316 µM): 108%
viability, T/C (second compound 0.0316 µM, first compound 0.1 µM): 101%
viability, T/C (second compound 0.0316 µM, first compound 0.316 µM): 105%
viability, T/C (second compound 0.0316 µM, first compound 1 µM): 111%
viability, T/C (second compound 0.0316 µM, first compound 3.16 µM): 77.7%
viability, T/C (second compound 0.0316 µM, first compound 10 µM): 4.79%
viability, T/C [6]: 97.7%
viability, T/C [7]: 100%
viability, T/C [8]: 99.9%
viability, T/C [9]: 104%
viability, T/C [10]: 72.9%
viability, T/C [11]: 4.13%
viability, T/C [12]: 88.5%
viability, T/C [13]: 97.4%
viability, T/C [14]: 100%
viability, T/C [15]: 103%
viability, T/C [16]: 19.3%
viability, T/C [17]: 4.17%
viability, T/C [18]: 85.6%
viability, T/C [19]: 89.5%
viability, T/C [20]: 84.6%
viability, T/C [21]: 81.7%
viability, T/C [22]: 11.3%
viability, T/C [23]: 1.35%
viability, T/C [24]: 10.6%
viability, T/C [25]: 8.43%
viability, T/C [26]: 5.9%
viability, T/C [27]: 1.39%
viability, T/C [28]: 0.22%
viability, T/C [29]: 0.27%

COc1cc(Nc2ncc3c(n2)-c2ccc(Cl)cc2C(c2c(F)cccc2OC)=NC3)ccc1C(=O)O
viability, T/C (compound 0.0316 µM): 50.2% [middle of 5 runs]
viability, T/C (compound 0.1 µM): 39.8% [middle of 5 runs]
viability, T/C (compound 0.316 µM): 45.3% [middle of 5 runs]
viability, T/C (compound 1 µM): 47.9% [middle of 5 runs]
viability, T/C (compound 3.16 µM): 46.5% [middle of 5 runs]
viability, T/C (compound 10 µM): 41.2% [middle of 5 runs]
IC50 (curve of compound): < 31.6 nM

O=C(c1cc(Cc2n[nH]c(=O)c3ccccc23)ccc1F)N1CCN(C(=O)C2CC2)CC1 + COc1cc2nc(C)nc(NC(C)c3cc(N)cc(C(F)(F)F)c3)c2cc1OC1CCOC1
IC50 [1]: > 10000 nM
IC50 [2]: > 10000 nM
IC50 [3]: > 10000 nM
IC50 [4]: > 10000 nM
IC50 [5]: > 10000 nM
viability, T/C [6]: 92.5%
viability, T/C [7]: 71.2%
viability, T/C [8]: 83.6%
viability, T/C [9]: 88.9%
viability, T/C [10]: 75.5%
viability, T/C [11]: 74.5%
viability, T/C [12]: 81.2%
viability, T/C [13]: 66.3%
viability, T/C [14]: 70.2%
viability, T/C [15]: 73%
viability, T/C [16]: 79.6%
viability, T/C [17]: 58.2%
viability, T/C [18]: 107%
viability, T/C [19]: 102%
viability, T/C [20]: 94.6%
viability, T/C [21]: 96.3%
viability, T/C [22]: 92.3%
viability, T/C [23]: 64.6%
viability, T/C [24]: 108%
viability, T/C [25]: 96.6%
viability, T/C [26]: 97.5%
viability, T/C [27]: 83.9%
viability, T/C [28]: 81.1%
viability, T/C [29]: 51.5%
viability, T/C [30]: 107%
viability, T/C [31]: 119%
viability, T/C [32]: 112%
viability, T/C [33]: 96.8%
viability, T/C [34]: 86.8%
viability, T/C [35]: 65.2%

CCN1CCN(Cc2ccc(Nc3ncc(F)c(-c4cc(F)c5nc(C)n(C(C)C)c5c4)n3)nc2)CC1 + CC1OCC2(CCN(c3cnc(Sc4ccnc(N)c4Cl)c(N)n3)CC2)C1N
IC50 [1]: > 1000 nM
IC50 [2]: > 1000 nM
IC50 [3]: > 1000 nM
IC50 [4]: > 1000 nM
IC50 [5]: > 1000 nM
viability, T/C [36]: 72.4%
viability, T/C [37]: 87%
viability, T/C [6]: 59%
viability, T/C [7]: 61.5%
viability, T/C [8]: 73.7%
viability, T/C [9]: 66%
viability, T/C [38]: 66.5%
viability, T/C [39]: 70.6%
viability, T/C [12]: 55.2%
viability, T/C [13]: 57.2%
viability, T/C [14]: 75.5%
viability, T/C [15]: 61.4%
viability, T/C [40]: 70.6%
viability, T/C [41]: 59.5%
viability, T/C [18]: 58.2%
viability, T/C [19]: 60%
viability, T/C [20]: 62.2%
viability, T/C [21]: 68.8%
viability, T/C [42]: 66.8%
viability, T/C [43]: 67.9%
viability, T/C [24]: 60.9%
viability, T/C [25]: 60.8%
viability, T/C [26]: 63.8%
viability, T/C [27]: 60.1%
viability, T/C [44]: 62.6%
viability, T/C [45]: 71.8%
viability, T/C [30]: 63.5%
viability, T/C [31]: 61.7%
viability, T/C [32]: 57.4%
viability, T/C [33]: 50.2%

Cn1ncnc1[C@H]1c2n[nH]c(=O)c3cc(F)cc(c23)N[C@@H]1c1ccc(F)cc1 + COc1cc2nc(C)nc(NC(C)c3cc(N)cc(C(F)(F)F)c3)c2cc1OC1CCOC1
IC50 [1]: > 100 nM
IC50 [2]: > 100 nM
IC50 [3]: > 100 nM
IC50 [4]: > 100 nM
IC50 [5]: > 100 nM
viability, T/C (second compound 0.1 µM, first compound 0.000316 µM): 80.6%
viability, T/C (second compound 0.1 µM, first compound 0.001 µM): 78.6%
viability, T/C [36]: 85.2%
viability, T/C [37]: 67.1%
viability, T/C [6]: 70.3%
viability, T/C [7]: 66.2%
viability, T/C (second compound 0.316 µM, first compound 0.000316 µM): 81.2%
viability, T/C (second compound 0.316 µM, first compound 0.001 µM): 90.5%
viability, T/C [38]: 85.3%
viability, T/C [39]: 63.2%
viability, T/C [12]: 67.4%
viability, T/C [13]: 65.2%
viability, T/C (second compound 1 µM, first compound 0.000316 µM): 86%
viability, T/C (second compound 1 µM, first compound 0.001 µM): 88.1%
viability, T/C [40]: 84%
viability, T/C [41]: 75.1%
viability, T/C [18]: 69.3%
viability, T/C [19]: 71.1%
viability, T/C (second compound 3.16 µM, first compound 0.000316 µM): 94.2%
viability, T/C (second compound 3.16 µM, first compound 0.001 µM): 94.6%
viability, T/C [42]: 88.7%
viability, T/C [43]: 81.2%
viability, T/C [24]: 77.8%
viability, T/C [25]: 70.3%
viability, T/C (second compound 10 µM, first compound 0.000316 µM): 84.7%
viability, T/C (second compound 10 µM, first compound 0.001 µM): 70.5%
viability, T/C [44]: 75.3%
viability, T/C [45]: 67.9%
viability, T/C [30]: 57.6%
viability, T/C [31]: 55%
